Experimental data reported in patent publication US9637491B2, “Pyrazolo[4,3-D]pyrimidines as kinase inhibitors” (Origenis GmbH, priority 2012, dated 2017).

Biological target: T1, SYK kinase (Homo sapiens, UniProt P43405)
T1 construct: purchased Invitrogen, Carlsbad
Test: SYK assay (OMNIA Kinase Assay, Invitrogen)
Format: biochemical
Settings: SYK Activities; 1 mM ATP, 10 μM Omnia Peptide Substrate Tyr 7, 30° C.
Procedure: In the assay OMNIA® KINASE ASSAY by Invitrogen Corporation (Carlsbad) the effect of invention of a compound on the phosphorylation is determined by measurement of fluorescence intensity of a chelation-enhanced fluorophore called SOX. Upon phosphorylation of the peptide by the kinase of interest, Mg2+ is chelated to form a bridge between the SOX moiety and the phosphate group that is transferred to the specific tyrosine on the peptide. The fluorescence intensity is directly proportional to the amount of peptide phosphorylation.
To the wells of an 384 well small volume plate (Greiner, Frickenhausen) are added (i) the compound under test in 5% DMSO/distilled water (2 μl), (ii) 16 μl of the master mix containing ATP, DTT, Kinase Reaction Buffer, Omina Peptide Substrate Tyr 7 resulting in a final concentration of 1 mM ATP, 0.2 mM DTT and 10 μM Peptide Substrate. The Master Mix and the assay plate was incubated to reaction temperature before the measurement (30° C.). The reaction was started with addition of (iii) 2 μl 4 μg/ml SYK kinase (Invitrogen, Carlsbad). During measurement fluorescence intensitiy readings were collected using a TECAN M1000 at a wavelength of λex 360/λem 485 nm every 30 s for 30 minutes. The reaction velocity was plotted versus the inhibitor concentration to determine the IC50 using XLFit 5.0 (IDBS, Guildford) to fit to a sigmoidal dose response curve.

IC50 [nM]	Structure (SMILES)
100 to 1000	CC(=O)N1CCC(n2cc(Nc3nc(-c4ncco4)nc4cn[nH]c34)cn2)CC1 [Example 257, 1-(4-(4-((5-(oxazol-2-yl)-1H-pyrazolo[4,3-d]pyrimidin-7-yl)amino)-1H-pyrazol-1-yl)piperidin-1-yl)ethan-1-one]
10 to 100	FCCn1cc(Nc2nc(C3CCC3)nc3cn[nH]c23)cn1 [Example 363, 5-cyclobutyl-N-(1-(2-fluoroethyl)-1H-pyrazol-4-yl)-1H-pyrazolo[4,3-d]pyrimidin-7-amine]
10 to 100	FC(F)(F)Cn1cc(Nc2nc(-c3ccco3)nc3cn[nH]c23)cn1 [Example 377, 5-(furan-2-yl)-N-(1-(2,2,2-trifluoroethyl)-1H-pyrazol-4-yl)-1H-pyrazolo[4,3-d]pyrimidin-7-amine]
100 to 1000	CC(C)Cn1cc(Nc2nc(-c3ncco3)nc3cn[nH]c23)cn1 [Example 252, N-(1-isobutyl-1H-pyrazol-4-yl)-5-(oxazol-2-yl)-1H-pyrazolo[4,3-d]pyrimidin-7-amine]
100 to 1000	COCC(C)(C)n1cc(Nc2nc(-c3ccoc3)nc3cn[nH]c23)cn1 [Example 290, 5-(furan-3-yl)-N-(1-(1-methoxy-2-methylpropan-2-yl)-1H-pyrazol-4-yl)-1H-pyrazolo[4,3-d]pyrimidin-7-amine]
10 to 100	FC(F)(F)Cn1cc(Nc2nc(C3CC3)nc3cn[nH]c23)cn1 [Example 374, 5-cyclopropyl-N-(1-(2,2,2-trifluoroethyl)-1H-pyrazol-4-yl)-1H-pyrazolo[4,3-d]pyrimidin-7-amine]
100 to 1000	FC(F)(F)Cn1cc(Nc2nc(-c3ccoc3)nc3cn[nH]c23)cn1 [Example 375, 5-(furan-3-yl)-N-(1-(2,2,2-trifluoroethyl)-1H-pyrazol-4-yl)-1H-pyrazolo[4,3-d]pyrimidin-7-amine]
< 10	c1cc(N2CCOCC2)ccc1Nc1nc(C2CC2)nc2cn[nH]c12 [Example 18, 5-cyclopropyl-N-(4-morpholinophenyl)-1H-pyrazolo[4,3-d]pyrimidin-7-amine]
100 to 1000	COc1cccc(-c2nc(Nc3cnn(C4CC4)c3)c3[nH]ncc3n2)c1 [Example 406, N-(1-cyclopropyl-1H-pyrazol-4-yl)-5-(3-methoxyphenyl)-1H-pyrazolo[4,3-d]pyrimidin-7-amine]
100 to 1000	CC(=O)N1CCC(n2cc(Nc3nc(-c4cocn4)nc4cn[nH]c34)cn2)CC1 [Example 130, 1-(4-(4-((5-(oxazol-4-yl)-1H-pyrazolo[4,3-d]pyrimidin-7-yl)amino)-1H-pyrazol-1-yl)piperidin-1-yl)ethan-1-one]
10 to 100	COCC(C)(C)n1cc(Nc2nc(C3CC3)nc3cn[nH]c23)cn1 [Example 283, 5-cyclopropyl-N-(1-(1-methoxy-2-methylpropan-2-yl)-1H-pyrazol-4-yl)-1H-pyrazolo[4,3-d]pyrimidin-7-amine]
< 10	CC(C)n1cc(Nc2nc(C3CCC3)nc3cn[nH]c23)cn1 [Example 223, 5-cyclobutyl-N-(1-isopropyl-1H-pyrazol-4-yl)-1H-pyrazolo[4,3-d]pyrimidin-7-amine]
10 to 100	Nc1cccc(-c2nc(Nc3cnn(C4CCOCC4)c3)c3[nH]ncc3n2)c1 [Example 530, 5-(3-aminophenyl)-N-(1-(tetrahydro-2H-pyran-4-yl)-1H-pyrazol-4-yl)-1H-pyrazolo[4,3-d]pyrimidin-7-amine]

Further lines, the compound ahead of its results:

Structure (SMILES)	IC50 [nM]
CN1C(=O)COc2ccc(Nc3nc(-c4ccoc4)nc4cn[nH]c34)cc21 [Example 488, 6-((5-(furan-3-yl)-1H-pyrazolo[4,3-d]pyrimidin-7-yl)amino)-4-methyl-2H-benzo[b][1,4]oxazin-3(4H)-one]	10 to 100
c1cncc(-c2nc(Nc3ccc(N4CCOCC4)cc3)c3n[nH]cc3n2)c1 [Example 162, N-(4-morpholinophenyl)-5-(pyridin-3-yl)-2H-pyrazolo[4,3-d]pyrimidin-7-amine]	100 to 1000
COc1cc(Nc2nc(-c3c(F)cccc3F)nc3cn[nH]c23)ccc1N1CCOCC1 [Example 12, 5-(2,6-difluorophenyl)-N-(3-methoxy-4-morpholinophenyl)-1H-pyrazolo[4,3-d]pyrimidin-7-amine]	< 10
COc1ccc(Nc2nc(-c3ccoc3)nc3cn[nH]c23)cc1OC [Example 95, N-(3,4-dimethoxyphenyl)-5-(furan-3-yl)-1H-pyrazolo[4,3-d]pyrimidin-7-amine]	100 to 1000
CC(C)(C#N)n1cc(Nc2nc(-c3ccc4cn[nH]c4c3)nc3cn[nH]c23)cn1 [Example 416, 2-(4-((5-(1H-indazol-6-yl)-1H-pyrazolo[4,3-d]pyrimidin-7-yl)amino)-1H-pyrazol-1-yl)-2-methylpropanenitrile]	10 to 100
CC(=O)N1CCN(c2ccc(Nc3nc(-c4ccon4)nc4cn[nH]c34)cc2)CC1 [Example 72, 1-(4-(4-((5-(isoxazol-3-yl)-1H-pyrazolo[4,3-d]pyrimidin-7-yl)amino)phenyl)piperazin-1-yl)ethan-1-one]	100 to 1000
COCCn1ncc(Nc2nc(-c3ccco3)nc3cn[nH]c23)c1N(C)C [Example 404, N4-(5-(furan-2-yl)-1H-pyrazolo[4,3-d]pyrimidin-7-yl)-1-(2-methoxyethyl)-N5,N5-dimethyl-1H-pyrazole-4,5-diamine]	100 to 1000
CC(C(=O)O)n1cc(Nc2nc(-c3ccc4cn[nH]c4c3)nc3cn[nH]c23)cn1 (stereo not drawn) [Example 493, 2-(4-((5-(1H-indazol-6-yl)-1H-pyrazolo[4,3-d]pyrimidin-7-yl)amino)-1H-pyrazol-1-yl)propanoic acid]	100 to 1000
CC(=O)N1CCN(c2ccc(Nc3nc(-c4ccoc4)nc4cn[nH]c34)cc2)CC1 [Example 96, 1-(4-(4-((5-(furan-3-yl)-1H-pyrazolo[4,3-d]pyrimidin-7-yl)amino)phenyl)piperazin-1-yl)ethan-1-one]	10 to 100
CN1CCC(n2cc(Nc3nc(-c4nc5ccccc5o4)nc4cn[nH]c34)cn2)CC1 [Example 445, 5-(benzo[d]oxazol-2-yl)-N-(1-(1-methylpiperidin-4-yl)-1H-pyrazol-4-yl)-1H-pyrazolo[4,3-d]pyrimidin-7-amine]	10 to 100
Fc1cc(Nc2nc(-c3ccon3)nc3cn[nH]c23)ccc1N1CCOCC1 [Example 75, N-(3-fluoro-4-morpholinophenyl)-5-(isoxazol-3-yl)-1H-pyrazolo[4,3-d]pyrimidin-7-amine]	100 to 1000
COCCCn1cc(Nc2nc(-c3nc4ccccc4s3)nc3cn[nH]c23)cn1 [Example 412, 5-(benzo[d]thiazol-2-yl)-N-(1-(3-methoxypropyl)-1H-pyrazol-4-yl)-1H-pyrazolo[4,3-d]pyrimidin-7-amine]	< 10
c1nn(C2CCOCC2)cc1Nc1nc(-c2ccc3cn[nH]c3c2)nc2cn[nH]c12 [Example 134, 5-(1H-indazol-6-yl)-N-(1-(tetrahydro-2H-pyran-4-yl)-1H-pyrazol-4-yl)-1H-pyrazolo[4,3-d]pyrimidin-7-amine]	< 10
COCCn1cc(-c2nc(Nc3ccc(N4CCOCC4)cc3)c3[nH]ncc3n2)cn1 [Example 393, 5-(1-(2-methoxyethyl)-1H-pyrazol-4-yl)-N-(4-morpholinophenyl)-1H-pyrazolo[4,3-d]pyrimidin-7-amine]	100 to 1000
O=C(c1ccc(Nc2nc(-c3ccoc3)nc3cn[nH]c23)cc1F)N1CCOCC1 [Example 201, (2-fluoro-4-((5-(furan-3-yl)-1H-pyrazolo[4,3-d]pyrimidin-7-yl)amino)phenyl)(morpholino)methanone]	100 to 1000
O=C1OCCN1c1ccc(Nc2nc(-c3ccco3)nc3cn[nH]c23)cc1 [Example 115, 3-(4-((5-(furan-2-yl)-1H-pyrazolo[4,3-d]pyrimidin-7-yl)amino)phenyl)oxazolidin-2-one]	10 to 100
COc1cccc(-c2nc(Nc3cnn(C4CCN(C(C)(C)C)CC4)c3)c3[nH]ncc3n2)c1 [Example 407, N-(1-(1-(tert-butyl)piperidin-4-yl)-1H-pyrazol-4-yl)-5-(3-methoxyphenyl)-1H-pyrazolo[4,3-d]pyrimidin-7-amine]	10 to 100
COc1ccc(Nc2nc(-c3ccc(C)s3)nc3cn[nH]c23)cc1OC [Example 8, N-(3,4-dimethoxyphenyl)-5-(5-methylthiophen-2-yl)-1H-pyrazolo[4,3-d]pyrimidin-7-amine]	100 to 1000
CC(C)Cn1cc(Nc2nc(-c3ccc4cn[nH]c4c3)nc3cn[nH]c23)cn1 [Example 423, 5-(1H-indazol-6-yl)-N-(1-isobutyl-1H-pyrazol-4-yl)-1H-pyrazolo[4,3-d]pyrimidin-7-amine]	10 to 100
CN1CCC(n2cc(Nc3nc(-c4nc5ccccc5s4)nc4cn[nH]c34)cn2)CC1 [Example 459, 5-(benzo[d]thiazol-2-yl)-N-(1-(1-methylpiperidin-4-yl)-1H-pyrazol-4-yl)-1H-pyrazolo[4,3-d]pyrimidin-7-amine]	10 to 100
O=C1OCCN1c1ccc(Nc2nc(-c3ccoc3)nc3cn[nH]c23)cc1 [Example 98]	100 to 1000
Fc1ccccc1-c1nc(Nc2ccc(N3CCOCC3)c(F)c2)c2[nH]ncc2n1 [Example 24, N-(3-fluoro-4-morpholinophenyl)-5-(2-fluorophenyl)-1H-pyrazolo[4,3-d]pyrimidin-7-amine]	100 to 1000
c1cc(N2CCOCC2)ccc1Nc1nc(C2COCCO2)nc2cn[nH]c12 (stereo not drawn) [Example 84, 5-(1,4-dioxan-2-yl)-N-(4-morpholinophenyl)-1H-pyrazolo[4,3-d]pyrimidin-7-amine]	100 to 1000
